Experimental data: patent US11254690B2, “PTEFb inhibiting macrocyclic compounds” (BAYER AKTIENGESELLSCHAFT, priority 2017, dated 2022)
Like-named read-outs stand apart in the source and are kept apart here.

How the values were obtained:
[1] = target: T1, CDK9/CycT1 (Homo sapiens, UniProt P50750); assay: CDK9/CycT1 high ATP kinase assay (TR-FRET, 2 mM ATP); format: biochemical; settings: for IC50: 2 mM ATP, Method 1b, lower limit for IC50s about 1-2 nM; for Selectivity high ATP CDK9 over high ATP CDK2: IC50 (high ATP CDK2)/IC50 (high ATP CDK9): ratio from Methods 1b and 2b, minimal values for IC50s near the assay limit
T1 construct: Recombinant full-length His-tagged human CDK9 and CycT1; His; purchased Life Technologies PV4131; host or cells: insect cells
T1 sequence (P50750 whole entry): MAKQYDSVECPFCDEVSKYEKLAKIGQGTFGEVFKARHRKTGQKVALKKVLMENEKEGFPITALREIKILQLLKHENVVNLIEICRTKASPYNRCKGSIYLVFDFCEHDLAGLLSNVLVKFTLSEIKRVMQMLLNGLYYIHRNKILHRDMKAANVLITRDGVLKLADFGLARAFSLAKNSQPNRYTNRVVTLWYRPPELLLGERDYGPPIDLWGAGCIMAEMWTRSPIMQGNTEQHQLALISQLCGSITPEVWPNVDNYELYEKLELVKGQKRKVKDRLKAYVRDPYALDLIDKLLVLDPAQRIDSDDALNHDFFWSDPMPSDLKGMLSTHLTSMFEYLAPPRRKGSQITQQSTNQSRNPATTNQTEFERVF
T1 sequence (O60563 whole entry partner): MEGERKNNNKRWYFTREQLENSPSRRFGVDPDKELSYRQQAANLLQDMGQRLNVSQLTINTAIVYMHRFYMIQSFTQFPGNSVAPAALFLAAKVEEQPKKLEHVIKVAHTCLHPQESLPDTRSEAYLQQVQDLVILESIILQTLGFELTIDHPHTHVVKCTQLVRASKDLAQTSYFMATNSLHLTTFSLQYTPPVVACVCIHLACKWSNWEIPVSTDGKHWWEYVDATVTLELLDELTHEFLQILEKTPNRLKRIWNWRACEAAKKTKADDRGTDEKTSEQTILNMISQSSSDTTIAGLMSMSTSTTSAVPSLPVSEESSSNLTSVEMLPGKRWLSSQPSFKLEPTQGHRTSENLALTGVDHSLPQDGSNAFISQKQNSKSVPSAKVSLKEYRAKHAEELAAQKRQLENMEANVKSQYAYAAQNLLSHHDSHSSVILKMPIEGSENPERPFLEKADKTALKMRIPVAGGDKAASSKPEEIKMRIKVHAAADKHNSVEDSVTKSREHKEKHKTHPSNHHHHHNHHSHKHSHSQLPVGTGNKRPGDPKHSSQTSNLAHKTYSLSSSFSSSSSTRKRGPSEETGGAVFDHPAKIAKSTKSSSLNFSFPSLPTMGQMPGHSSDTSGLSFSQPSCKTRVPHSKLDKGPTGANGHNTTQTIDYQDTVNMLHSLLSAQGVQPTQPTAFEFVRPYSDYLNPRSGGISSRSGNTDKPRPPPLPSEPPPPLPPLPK
Method in brief: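 Full-length His-tagged human CDK9/CycT1 from insect cells (about 0.5 μg/ml) was preincubated with compound for 15 min at 22° C in 50 mM Tris/HCl pH 8.0, 10 mM MgCl2, 1.0 mM DTT. Phosphorylation was detected by TR-FRET with anti-RB(pSer807/pSer811) antibody, as the 665/622 nm ratio normalised to no-inhibitor and no-enzyme controls.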

[2] = system: A2780 cells; assay: Proliferation assay, A2780; format: cell-based, human; settings: 72-hour exposure, Cell Titre-Glo, read-out: Inhibition of A2780 cell proliferation IC50
Method: Cultivated tumour cells (HeLa, human cervical tumour cells, ATCC CCL-2; NCI-H460, human non-small cell lung carcinoma cells, ATCC HTB-177; DU 145, hormone-independent human prostate carcinoma cells, ATCC HTB-81; HeLa-MaTu-ADR, multidrug-resistant human cervical carcinoma cells, EPO-GmbH Berlin; Caco-2, human colorectal carcinoma cells, ATCC HTB-37; B16F10, mouse melanoma cells, ATCC CRL-6475) were plated at a density of 5,000 cells/well (DU145, HeLa-MaTu-ADR), 3,000 cells/well (NCI-H460, HeLa), 1,500 cells/well (Caco-2), or 1,000 cells/well (B16F10) in a 96-well multititer plate in 200 μL of their respective growth medium supplemented 10% fetal calf serum. After 24 hours, the cells of one plate (zero-point plate) were stained with crystal violet (see below), while the medium of the other plates was supplemented with the test substances in various concentrations (0 μM, as well as in the range of 0.0001-10 μM; the final concentration of the solvent dimethyl sulfoxide was adjusted to 0.1%) using a Hewlett-Packard HP D300 Digital Dispenser. The cells were incubated for 4 days in the presence of test substances. Cell proliferation was determined by staining the cells with crystal violet: the cells were fixed by adding 20 μl/measuring point of an 11% glutaric aldehyde solution for 15 minutes at room temperature. After three washing cycles of the fixed cells with water, the plates were dried at room temperature. The cells were stained by adding 100 μl/measuring point of a 0.1% crystal violet solution (pH 3.0). After three washing cycles of the stained cells with water, the plates were dried at room temperature. The dye was dissolved by adding 100 μl/measuring point of a 10% acetic acid solution. The extinction was determined by photometry at a wavelength of 595 nm. The change of cell number, in percent, was calculated by normalization of the measured values to the extinction values of the zero-point plate (=0%) and the extinction of the untreated ([…]) cells (=100%). The IC50 values (inhibitory concentration at 50% of maximal effect) were determined by means of a 4 parameter fit. A2780 human ovarian carcinoma cells (ECACC #93112519) and non-adherent MOLM-13 human acute myeloid leukemia cells (DSMZ ACC 554) were seeded at a density of 3,000 cell/well (A2780) or 5,000 cells/well (MOLM-13) in a 96-well multititer plate in 150 μL of growth medium supplemented 10% fetal calf serum. After 24 hours, cell viability of one plate (zero-point plate) was determined with the Cell Titre-Glo Luminescent Cell Viability Assay (Promega), while the medium of the other plates was supplemented with the test substances in various concentrations (0 μM, as well as in the range of 0.0001-10 μM; the final concentration of the solvent dimethyl sulfoxide was adjusted to 0.1%) using a Hewlett-Packard HP D300 Digital Dispenser. Cell viability was assessed after 72-hour exposure with the Cell Titre-Glo Luminescent Cell Viability Assay (Promega). IC50 values (inhibitory concentration at 50% of maximal effect) were determined by means of a 4 parameter fit on measurement data which were normalized to vehicle (DMSO) treated cells (=100%) and measurement readings taken immediately before compound exposure (=0%).

In the case of `CS(=N)(=O)Cc1cc2nc(c1)OCCCCOc1cc(ccc1F)-c1cc(ncc1F)N2` (racemic) [Example 2, (rac)-3,20-difluoro-10-[(S-methylsulfonimidoyl)methyl]-13,18-dioxa-5,7,24-triazatetracyclo[17.3.1.1^2,6.1^8,12]pentacosa-1(23),2(25),3,5,8(24),9,11,19,21-nonaene], the IC50 [1] is reported as 7 nM, the “Selectivity high ATP CDK9 over high ATP CDK2: IC50 (high ATP CDK2)/IC50 (high ATP CDK9)” value (from here on “Selectivity high ATP CDK9”) [1] is reported as 105 and the IC50 ([2]; Homo sapiens, A2780, 72 h) is reported as 9 nM.

For `CC(C)(C)OC(=O)N=S(C)(=O)Cc1cc2cc(c1)OCCCCOc1cc(ccc1F)-c1nc(ncc1F)N2` (racemic) [Example 3, (rac)-tert-butyl [{[3,20-difluoro-13,18-dioxa-5,7,25-triazatetracyclo[17.3.1.1^2,6.1^8,12]pentacosa-1(23),2(25),3,5,8(24),9,11,19,21-nonaen-10-yl]methyl}(methyl)oxido-λ^6-sulfanylidene]carbamate], the IC50 [1] was 5 nM, the “Selectivity high ATP CDK9” value [1] was over 4000 and the IC50 ([2]; Homo sapiens, A2780, 72 h) was 56 nM.

`CS(=N)(=O)Cc1cc2cc(c1)OCCCCOc1cc(ccc1F)-c1nc(ncc1F)N2` (racemic) [Example 4, (rac)-3,20-difluoro-10-[(S-methylsulfonimidoyl)methyl]-13,18-dioxa-5,7,25-triazatetracyclo[17.3.1.1^2,6.1^8,12]pentacosa-1(23),2(25),3,5,8(24),9,11,19,21-nonaene] was tested, and the IC50 [1] was 3 nM, the “Selectivity high ATP CDK9” value [1] was 513 and the IC50 ([2]; Homo sapiens, A2780, 72 h) was 41 nM.

With `CC(C)(C)OC(=O)N=S(C)(=O)Cc1cc2cc(c1)OCCCCCOc1cc(ccc1F)-c1nc(ncc1F)N2` (racemic) [Example 5, (rac)-tert-butyl [{[3,21-difluoro-13,19-dioxa-5,7,26-triazatetracyclo[18.3.1.1^2,6.1^8,12]hexacosa-1(24),2(26),3,5,8(25),9,11,20,22-nonaen-10-yl]methyl}(methyl)oxido-λ^6-sulfanylidene]carbamate] the IC50 [1] was 24 nM, the “Selectivity high ATP CDK9” value [1] was over 833 and the IC50 ([2]; Homo sapiens, A2780, 72 h) was over 100 nM.

With `CS(=N)(=O)Cc1cc2cc(c1)OCCCCCOc1cc(ccc1F)-c1nc(ncc1F)N2` (racemic) [Example 6, (rac)-3,21-difluoro-10-[(S-methylsulfonimidoyl)methyl]-13,19-dioxa-5,7,26-triazatetracyclo[18.3.1.1^2,6.1^8,12]hexacosa-1(24),2(26),3,5,8(25),9,11,20,22-nonaene] the IC50 [1] was 5 nM, the “Selectivity high ATP CDK9” value [1] was 3240 and the IC50 ([2]; Homo sapiens, A2780, 72 h) was 39 nM.

With `CS(=N)(=O)Cc1cc2cc(c1)OCCCCOc1c(F)ccc(c1F)-c1nc(ncc1F)N2` (racemic) [Example 8, (rac)-3,20,23-trifluoro-10-[(S-methylsulfonimidoyl)methyl]-13,18-dioxa-5,7,25-triazatetracyclo[17.3.1.1^2,6.1^8,12]pentacosa-1(23),2(25),3,5,8(24),9,11,19,21-nonaene] the IC50 [1] was 17 nM, the “Selectivity high ATP CDK9” value [1] was 385 and the IC50 ([2]; Homo sapiens, A2780, 72 h) was 68 nM.

In the case of `CS(=N)(=O)Cc1cc2cc(c1)OCCCOc1cc(ccc1F)-c1nc(ncc1F)N2` (racemic) [Example 10, (rac)-3,19-difluoro-10-[(S-methylsulfonimidoyl)methyl]-13,17-dioxa-5,7,24-triazatetracyclo[16.3.1.1^2,6.1^8,12]tetracosa-1(22),2(24),3,5,8(23),9,11,18,20-nonaene], the IC50 [1] is reported as 25 nM, the “Selectivity high ATP CDK9” value [1] is reported as 190 and the IC50 ([2]; Homo sapiens, A2780, 72 h) is reported as 48 nM.

For `CC1CCCOc2cc(ccc2F)-c2cc(ncc2F)Nc2cc(CS(C)(=O)=O)cc(n2)O1` (racemic) [Example 28, 3,20-difluoro-14-methyl-10-[(methylsulfonyl)methyl]-13,18-dioxa-5,7,24-triazatetracyclo[17.3.1.1^2,6.1^8,12]pentacosa-1(23),2(25),3,5,8(24),9,11,19,21-nonaene], the “Selectivity high ATP CDK9” value [1] was 189 and the IC50 ([2]; Homo sapiens, A2780, 72 h) was 16 nM.

In the case of `CC1CCCOc2cc(ccc2F)-c2cc(ncc2F)Nc2cc(CS(C)(=N)=O)cc(n2)O1` (single isomer, unassigned) [Example 16, 3,20-difluoro-14-methyl-10-[(S-methylsulfonimidoyl)methyl]-13,18-dioxa-5,7,24-triazatetracyclo[17.3.1.1^2,6.1^8,12]pentacosa-1(23),2(25),3,5,8(24),9,11,19,21-nonaene], the “Selectivity high ATP CDK9” value [1] is reported as 72 and the IC50 [2] is reported as 6 nM.

For `CC1CCCOc2cc(ccc2F)-c2cc(ncc2F)Nc2cc(CS(C)(=N)=O)cc(n2)O1` (single isomer, unassigned) [Example 17, 3,20-difluoro-14-methyl-10-[(S-methylsulfonimidoyl)methyl]-13,18-dioxa-5,7,24-triazatetracyclo[17.3.1.1^2,6.1^8,12]pentacosa-1(23),2(25),3,5,8(24),9,11,19,21-nonaene], the “Selectivity high ATP CDK9” value [1] was 132 and the IC50 [2] was 6 nM.

With `CC1CCCCOc2cc(ccc2F)-c2cc(ncc2F)Nc2cc(CS(C)(=N)=O)cc(n2)O1` (single isomer, unassigned) [Example 21, 3,21-difluoro-14-methyl-10-[(S-methylsulfonimidoyl)methyl]-13,19-dioxa-5,7,25-triazatetracyclo[18.3.1.1^2,6.1^8,12]hexacosa-1(24),2(26),3,5,8(25),9,11,20,22-nonaene] the “Selectivity high ATP CDK9” value [1] was 1225 and the IC50 [2] was 27 nM.

With `CC1CCCCOc2cc(ccc2F)-c2cc(ncc2F)Nc2cc(CS(C)(=N)=O)cc(n2)O1` (single isomer, unassigned) [Example 22, 3,21-difluoro-14-methyl-10-[(S-methylsulfonimidoyl)methyl]-13,19-dioxa-5,7,25-triazatetracyclo[18.3.1.1^2,6.1^8,12]hexacosa-1(24),2(26),3,5,8(25),9,11,20,22-nonaene] the “Selectivity high ATP CDK9” value [1] was 251 and the IC50 [2] was 0.7 nM.
